# Experimental data from patent US20070128217A1 (priority 2003, published 2007).
# How the values were obtained:
# [1] = test system: control sera (pooled serum of ten healthy LUMC hospital workers; commercial negative donor pooled serum from the Dutch bloodbank); assay type: binding, human; design: Binding of Control serum LUMC to linear peptides / Binding of Control serum Blood-bank to linear peptides / Binding of Control serum LUMC to looped peptides / Binding of Control Serum Blood-Bank to Looped peptides / Binding of Control serum LUMC to linear peptides of the protein M of SARS-CoV Urbani / Binding of Control serum Blood-bank to linear peptides of the protein M of SARS-CoV Urbani / Binding of Control serum LUMC to looped peptides of the protein M of SARS-CoV Urbani / Binding of Control Serum Blood-Bank to Looped peptides of the protein M of SARS-CoV Urbani: unit not given here
# [2] = test system: antibodies in sera from SARS patients (sera 1a, 1b, 2, 6, 37, 62, London, SARS-yellow, SARS-green); assay type: binding, human; design: Binding of serum 6 to linear peptides of protein X1 of SARS-CoV Urbani / Binding of serum 37 to linear peptides of protein X1 of SARS-CoV Urbani / Binding of serum 6 to looped/cyclic peptide (PEPSCAN-ELISA) / Binding of serum 37 to looped/cyclic peptide (PEPSCAN-ELISA) / Binding of serum 37 to looped/cyclic peptides of protein X1 of SARS-CoV Urbani / Binding of serum 6 to linear peptides of protein X2 / Binding of serum 37 to linear peptides of protein X2 / Binding of serum 37 to looped/cyclic peptides of protein X2 of SARS-CoV Urbani / Binding of serum 6 to linear peptides of protein M of SARS-CoV Urbani / Binding of serum 37 to linear peptides of protein M of SARS-CoV Urbani / Binding of serum 6 to looped/cyclic peptides of protein M of SARS-CoV Urbani / Binding of serum 37 to looped/cyclic peptides of protein M of SARS-CoV Urbani / Binding of serum 6 to linear peptides of protein X3 of SARS-CoV Urbani / Binding of serum 37 to linear peptides of protein X3 of SARS-CoV Urbani / Binding of serum 37 to looped/cyclic peptides of protein X3 of SARS-CoV Urbani / Binding of serum 6 to linear peptides of protein X4 of SARS-CoV Urbani / Binding of serum 37 to linear peptides of protein X4 of SARS-CoV Urbani / Binding of serum 37 to looped/cyclic peptides of protein X4 of SARS-CoV Urbani / Binding of serum 6 to linear peptides of protein X5 of SARS-CoV Urbani / Binding of serum 37 to linear peptides of protein X5 of SARS-CoV Urbani / Binding of serum 37 to looped/cyclic peptides of protein X5 of SARS-CoV Urbani / Binding of serum 6 to linear peptides of protein N of SARS-CoV Urbani / Binding of serum 37 to linear peptides of protein N of SARS-CoV Urbani / Binding of serum 6 to linear peptide (PEPSCAN-ELISA) / Binding of serum 1a to looped/cyclic peptides of protein N of SARS-CoV Urbani / Binding of serum 1b to looped/cyclic peptides of protein N of SARS-CoV Urbani / Binding of serum 2 to looped/cyclic peptides of protein N of SARS-CoV Urbani / Binding of serum 6 to looped/cyclic peptides of protein N of SARS-CoV Urbani / Binding of serum 37 to looped/cyclic peptides of protein N of SARS-CoV Urbani / Binding of serum 62 to looped/cyclic peptides of protein N of SARS-CoV Urbani / Binding of serum London to looped/cyclic peptides of protein N of SARS-CoV Urbani / Binding of serum SARS-green to looped/cyclic peptides of protein N of SARS-CoV Urbani: unit not given here
# [3] = test system: rabbit serum obtained by immunizing a rabbit with the SARS-CoV strain Frankfurt 1; assay type: binding; design: Binding of a rabbit serum to linear peptides / Binding of a rabbit serum to looped peptides / Rabbit serum linear peptides / Rabbit serum looped peptides / Binding of a rabbit serum to linear peptides of protein N of SARS-CoV Urbani (Rabbit serum linear peptides) / Binding of a rabbit serum to looped/cyclic peptides of protein N of SARS-CoV Urbani (Rabbit serum looped peptides): unit not given here
sequence,measurement,setting,value
RIGNYKLNTDHAGSN,Binding of Control Serum Blood-Bank to Looped peptides of the protein M of SARS-CoV Urbani,[1],0.8
same,Binding of Control serum Blood-bank to linear peptides of the protein M of SARS-CoV Urbani,[1],0.9
same,Binding of Control serum LUMC to linear peptides of the protein M of SARS-CoV Urbani,[1],0.6
same,Binding of Control serum LUMC to looped peptides of the protein M of SARS-CoV Urbani,[1],0.8
same,Binding of serum 1a to linear peptides of protein M of SARS-CoV Urbani,[2],0.7
same,Binding of serum 1a to looped/cyclic peptides of protein M of SARS-CoV Urbani,[2],0.6
same,Binding of serum 1b to linear peptides of protein M of SARS-CoV Urbani,[2],0.5
same,Binding of serum 1b to looped/cyclic peptides of protein M of SARS-CoV Urbani,[2],0.5
same,Binding of serum 2 to linear peptides of protein M of SARS-CoV Urbani,[2],0.6
same,Binding of serum 2 to looped/cyclic peptides of protein M of SARS-CoV Urbani,[2],0.5
same,Binding of serum 6 to linear peptides of protein M of SARS-CoV Urbani,[2],0.3
same,Binding of serum 6 to looped/cyclic peptides of protein M of SARS-CoV Urbani,[2],0.7
same,Binding of serum 37 to linear peptides of protein M of SARS-CoV Urbani,[2],0.5
same,Binding of serum 37 to looped/cyclic peptides of protein M of SARS-CoV Urbani,[2],0.6
same,Binding of serum 62 to linear peptides of protein M of SARS-CoV Urbani,[2],0.6
same,Binding of serum 62 to looped/cyclic peptides of protein M of SARS-CoV Urbani,[2],0.6
same,Binding of serum London to linear peptides of protein M of SARS-CoV Urbani,[2],0.6
same,Binding of serum London to looped/cyclic peptides of protein M of SARS-CoV Urbani,[2],0.4
same,Binding of serum SARS-green to linear peptides of protein M of SARS-CoV Urbani,[2],0.6
same,Binding of serum SARS-green to looped/cyclic peptides of protein M of SARS-CoV Urbani,[2],0.2
same,Binding of serum SARS-yellow to linear peptides of protein M of SARS-CoV Urbani,[2],0.1
same,Binding of serum SARS-yellow to looped/cyclic peptides of protein M of SARS-CoV Urbani,[2],0.6
same,Rabbit serum linear peptides,[3],0.1
same,Rabbit serum looped peptides,[3],0.2
RLLACLCKHKKVSTN,Binding of Control Serum Blood-Bank to Looped peptides,[1],0.3
same,Binding of Control serum Blood-bank to linear peptides,[1],0.9
same,Binding of Control serum LUMC to linear peptides,[1],0.7
same,Binding of Control serum LUMC to looped peptides,[1],0.4
same,Binding of serum 1a to looped/cyclic peptides of protein X2 of SARS-CoV Urbani,[2],0.3
same,Binding of serum 1b to looped/cyclic peptides of protein X2 of SARS-CoV Urbani,[2],0.2
same,Binding of serum 2 to looped/cyclic peptides of protein X2 of SARS-CoV Urbani,[2],0.3
same,Binding of serum 6 to looped/cyclic peptides of protein X2 of SARS-CoV Urbani,[2],0.3
same,Binding of serum 37 to looped/cyclic peptides of protein X2 of SARS-CoV Urbani,[2],0.3
same,Binding of serum 62 to looped/cyclic peptides of protein X2 of SARS-CoV Urbani,[2],0.5
same,Binding of serum London to looped/cyclic peptides of protein X2 of SARS-CoV Urbani,[2],0.2
same,Binding of serum SARS-green to looped/cyclic peptides of protein X2 of SARS-CoV Urbani,[2],0.3
same,Binding of serum SARS-yellow to looped/cyclic peptides of protein X2 of SARS-CoV Urbani,[2],0.4
same,"Recognition of the peptide by sera of SARS-CoV infected individuals, and form (linear, looped/cyclic) in which it is recognized",[2],recognized in linear form
same,Binding of a rabbit serum to linear peptides,[3],0.3
same,Binding of a rabbit serum to looped peptides,[3],0.4
RNRFLYIIKLVFLWL,Binding of Control Serum Blood-Bank to Looped peptides of the protein M of SARS-CoV Urbani,[1],0.7
same,Binding of Control serum Blood-bank to linear peptides of the protein M of SARS-CoV Urbani,[1],0.6
same,Binding of Control serum LUMC to linear peptides of the protein M of SARS-CoV Urbani,[1],0.7
same,Binding of Control serum LUMC to looped peptides of the protein M of SARS-CoV Urbani,[1],0.8
same,Binding of serum 1a to linear peptides of protein M of SARS-CoV Urbani,[2],0.6
same,Binding of serum 1b to linear peptides of protein M of SARS-CoV Urbani,[2],0.5
same,Binding of serum 2 to linear peptides of protein M of SARS-CoV Urbani,[2],0.4
same,Binding of serum 6 to linear peptides of protein M of SARS-CoV Urbani,[2],0.5
same,Binding of serum 37 to linear peptides of protein M of SARS-CoV Urbani,[2],0.4
same,Binding of serum 62 to linear peptides of protein M of SARS-CoV Urbani,[2],0.5
same,Binding of serum London to linear peptides of protein M of SARS-CoV Urbani,[2],0.3
same,Binding of serum SARS-green to linear peptides of protein M of SARS-CoV Urbani,[2],0.4
same,Binding of serum SARS-yellow to linear peptides of protein M of SARS-CoV Urbani,[2],0.3
same,"Recognition of the peptide by sera of SARS-CoV infected individuals, and form (linear, looped/cyclic) in which it is recognized",[2],recognized in looped/cyclic form
same,Rabbit serum linear peptides,[3],0.4
same,Rabbit serum looped peptides,[3],0.5
RSMWSFNPETNILLN,Binding of Control Serum Blood-Bank to Looped peptides of the protein M of SARS-CoV Urbani,[1],0.7
same,Binding of Control serum Blood-bank to linear peptides of the protein M of SARS-CoV Urbani,[1],0.8
same,Binding of Control serum LUMC to linear peptides of the protein M of SARS-CoV Urbani,[1],0.5
same,Binding of Control serum LUMC to looped peptides of the protein M of SARS-CoV Urbani,[1],0.7
same,Binding of serum 1a to linear peptides of protein M of SARS-CoV Urbani,[2],0.8
same,Binding of serum 1a to looped/cyclic peptides of protein M of SARS-CoV Urbani,[2],0.8
same,Binding of serum 1b to linear peptides of protein M of SARS-CoV Urbani,[2],0.6
same,Binding of serum 1b to looped/cyclic peptides of protein M of SARS-CoV Urbani,[2],0.4
same,Binding of serum 2 to linear peptides of protein M of SARS-CoV Urbani,[2],0.6
same,Binding of serum 2 to looped/cyclic peptides of protein M of SARS-CoV Urbani,[2],0.8
same,Binding of serum 6 to linear peptides of protein M of SARS-CoV Urbani,[2],0.3
same,Binding of serum 6 to looped/cyclic peptides of protein M of SARS-CoV Urbani,[2],0.7
same,Binding of serum 37 to linear peptides of protein M of SARS-CoV Urbani,[2],0.8
same,Binding of serum 37 to looped/cyclic peptides of protein M of SARS-CoV Urbani,[2],0.8
same,Binding of serum 62 to linear peptides of protein M of SARS-CoV Urbani,[2],0.7
same,Binding of serum 62 to looped/cyclic peptides of protein M of SARS-CoV Urbani,[2],0.8
same,Binding of serum London to linear peptides of protein M of SARS-CoV Urbani,[2],0.3
same,Binding of serum London to looped/cyclic peptides of protein M of SARS-CoV Urbani,[2],0.2
same,Binding of serum SARS-green to linear peptides of protein M of SARS-CoV Urbani,[2],0.2
same,Binding of serum SARS-green to looped/cyclic peptides of protein M of SARS-CoV Urbani,[2],0.4
same,Binding of serum SARS-yellow to linear peptides of protein M of SARS-CoV Urbani,[2],0.1
same,Binding of serum SARS-yellow to looped/cyclic peptides of protein M of SARS-CoV Urbani,[2],0.7
same,Rabbit serum linear peptides,[3],0.4
same,Rabbit serum looped peptides,[3],0.3
RSVSPKLFIRQEEVQ,Binding of Control Serum Blood-Bank to Looped peptides,[1],0.6
same,Binding of Control serum Blood-bank to linear peptides,[1],0.5
same,Binding of Control serum LUMC to linear peptides,[1],0.4
same,Binding of Control serum LUMC to looped peptides,[1],0.7
same,Binding of serum 1a to linear peptides of protein X4 of SARS-CoV Urbani,[2],0.7
same,Binding of serum 1a to looped/cyclic peptides of protein X4 of SARS-CoV Urbani,[2],0.6
same,Binding of serum 1b to linear peptides of protein X4 of SARS-CoV Urbani,[2],0.4
same,Binding of serum 1b to looped/cyclic peptides of protein X4 of SARS-CoV Urbani,[2],0.5
same,Binding of serum 2 to linear peptides of protein X4 of SARS-CoV Urbani,[2],0.4
same,Binding of serum 2 to looped/cyclic peptides of protein X4 of SARS-CoV Urbani,[2],0.5
same,Binding of serum 6 to linear peptides of protein X4 of SARS-CoV Urbani,[2],0.5
same,Binding of serum 6 to looped/cyclic peptides of protein X4 of SARS-CoV Urbani,[2],0.5
same,Binding of serum 37 to linear peptides of protein X4 of SARS-CoV Urbani,[2],0.6
same,Binding of serum 37 to looped/cyclic peptides of protein X4 of SARS-CoV Urbani,[2],0.7
same,Binding of serum 62 to linear peptides of protein X4 of SARS-CoV Urbani,[2],0.7
same,Binding of serum 62 to looped/cyclic peptides of protein X4 of SARS-CoV Urbani,[2],0.6
same,Binding of serum London to linear peptides of protein X4 of SARS-CoV Urbani,[2],0.6
same,Binding of serum London to looped/cyclic peptides of protein X4 of SARS-CoV Urbani,[2],0.3
same,Binding of serum SARS-green to linear peptides of protein X4 of SARS-CoV Urbani,[2],0.5
same,Binding of serum SARS-green to looped/cyclic peptides of protein X4 of SARS-CoV Urbani,[2],0.4
same,Binding of serum SARS-yellow to linear peptides of protein X4 of SARS-CoV Urbani,[2],0.2
same,Binding of serum SARS-yellow to looped/cyclic peptides of protein X4 of SARS-CoV Urbani,[2],0.5
same,Rabbit serum linear peptides,[3],0.4
same,Rabbit serum looped peptides,[3],0.4
